Results published in US5736510A, “Antibiotics 10381v, w, x,y, z1, z2, pre-b and t” (priority 1996, dated 1998).
Read-outs that look alike come from different tables or passages of the source.

Tests used:
Assay type in all cases: cell-based
C. perfringens = system: C. perfringens; set-up: Minimal Inhibitory Concentration (bioactivity data): unit not given here; conditions: for Minimal Inhibitory Concentration (bioactivity data): Table IV (separate study); for M.I.C.: Table III, mass basis, no correction for purity
S. faecalis = conditions: for Minimal Inhibitory Concentration (bioactivity data): Table IV (separate study); for M.I.C.: Table III, mass basis, no correction for purity
S. bovis = conditions: strain JB1; for Minimal Inhibitory Concentration (bioactivity data): Table IV (separate study)
B. fragilis = conditions: strain UC9370; for Minimal Inhibitory Concentration (bioactivity data): Table IV (separate study)
B. thetaiotaomicron = conditions: strain UC9014; for Minimal Inhibitory Concentration (bioactivity data): Table IV (separate study)
Procedure: (§1) The assay measures the ability of a compound to inhibit the growth of certain types of anaerobic bacteria which normally inhabit the gut of poultry, swine or cattle.
(§2) Two mg/ml solutions of the drugs to be tested are made in 10% v/v ethanol/water. This stock is then diluted to one mg per ml and then further diluted through a series of ten-two fold dilutions. At each concentration an aliquot is placed in a sterile petri plate. Nine volumes of molten agar are then added to each plate, mixed and allowed to harden at room temperature. These plates are then transferred to a Coy chamber and allowed to dry and equilibrate with the oxygen free atmosphere.
(§3) Organisms used for MIC testing are inoculated into broth media, and incubated 18-24 h at 39° C. prior to use. The cultures are then diluted to equal the turbidity of a 0.5 MacFarland barium sulfate standard, except for the porcine isolates P108-3C1, P105-1C3 and P105-1C4 which are diluted 1:1. All inoculations and dilutions are performed in the anaerobic chamber using broth media and syringe transfer through the butyl robber stoppers.
(§4) Freshly prepared and diluted cultures are loaded into the wells of a Steers replicator device. This apparatus can dispense ca 10 μl of each of 32 cultures onto the surface of the preincubated agar plates. One hour after the inoculation, the inoculum will have been absorbed and the plates are inverted and incubated at 38°-39° C. for 48 h. Plates are then removed from the chamber and the MIC for the test compounds determined. MIC's are reported as the lowest concentration of a compound which prevented detectable growth of a test organism on the agar plates. […] Thus, each set of test plates yields individual MIC values for each of the 32 test organisms.

E. lentum = conditions: strain L-34; Table IV (separate study)
B. fibrisolvens = conditions: for Minimal Inhibitory Concentration (bioactivity data): Table IV (separate study); for M.I.C.: Table III, mass basis, no correction for purity
M. elsdenii = conditions: strain B159; for Minimal Inhibitory Concentration (bioactivity data): Table IV (separate study)
L. multiparus = conditions: strain 40; for Minimal Inhibitory Concentration (bioactivity data): Table IV (separate study)
S. ruminantium = conditions: for Minimal Inhibitory Concentration (bioactivity data): Table IV (separate study); for M.I.C.: Table III, mass basis, no correction for purity
R. amylophilus = conditions: strain H18; for Minimal Inhibitory Concentration (bioactivity data): Table IV (separate study)
R. flavefaciens = conditions: for Minimal Inhibitory Concentration (bioactivity data): Table IV (separate study); for M.I.C.: Table III, mass basis, no correction for purity
E. ruminantium = conditions: strain GA195; for Minimal Inhibitory Concentration (bioactivity data): Table IV (separate study)
P. ruminicola = conditions: strain 118B; for Minimal Inhibitory Concentration (bioactivity data): Table IV (separate study)
F. necrophorum = conditions: for Minimal Inhibitory Concentration (bioactivity data): Table IV (separate study); for M.I.C.: Table III, mass basis, no correction for purity
S. hyodysenteriae = system: S. hyodysenteriae; set-up: unit not given here; conditions: Table IV (separate study)
Procedure: as §1, §2, §3, §4

[1] = system: anaerobic bacteria which normally inhabit the gut of poultry, swine or cattle; experiment: in vitro MIC assay, overall comparison of components across the test organisms; conditions: conclusion from Tables III and IV
Procedure: as §1, §2, §3, §4

[2] = Table III, mass basis, no correction for purity

C=C1NC(=O)c2nc(oc2C)C(=CC)NC(=O)c2csc(n2)C(OC)NC(=O)c2nc(oc2C)C(=CC(C)O)NC(=O)C(C(C)O)NC(=O)c2csc(n2)-c2ccc(C(N)=O)nc2-c2coc(n2)C(=C)NC1=O (centres unmarked) [Antibiotic 10381v]
0.8: Minimal Inhibitory Concentration (bioactivity data) (C. perfringens; strain A83-3) | Minimal Inhibitory Concentration (bioactivity data) (C. perfringens; strain RF1B04)
100: Minimal Inhibitory Concentration (bioactivity data) (C. perfringens; strain P1051C3) | Minimal Inhibitory Concentration (bioactivity data) (C. perfringens; strain P1083C1) | Minimal Inhibitory Concentration (bioactivity data) (S. ruminantium; strain GA192) | Minimal Inhibitory Concentration (bioactivity data) (F. necrophorum; strain FN4070)
6.3: Minimal Inhibitory Concentration (bioactivity data) (C. perfringens; strain UC9452)
> 100: Minimal Inhibitory Concentration (bioactivity data) (C. perfringens; strain A82-1) | Minimal Inhibitory Concentration (bioactivity data) (C. perfringens; strain CCS2-09) | Minimal Inhibitory Concentration (bioactivity data) (S. faecalis; strain 71A01) | Minimal Inhibitory Concentration (bioactivity data) (S. faecalis; strain CCS1-03) | Minimal Inhibitory Concentration (bioactivity data) (S. faecalis; strain P1051C4) | Minimal Inhibitory Concentration (bioactivity data) (S. bovis) | Minimal Inhibitory Concentration (bioactivity data) (B. fragilis) | Minimal Inhibitory Concentration (bioactivity data) (B. thetaiotaomicron) | Minimal Inhibitory Concentration (bioactivity data) (M. elsdenii) | Minimal Inhibitory Concentration (bioactivity data) (L. multiparus) | Minimal Inhibitory Concentration (bioactivity data) (F. necrophorum; strain FN5052) | Minimal Inhibitory Concentration (bioactivity data) (S. hyodysenteriae; strain 16-4) | Minimal Inhibitory Concentration (bioactivity data) (S. hyodysenteriae; strain B204)
< 0.2: Minimal Inhibitory Concentration (bioactivity data) (P. ruminicola)
3.1: Minimal Inhibitory Concentration (bioactivity data) (R. amylophilus)
considerably less active: in vitro activity ranking of the individual components [1]
25.0: Minimal Inhibitory Concentration (bioactivity data) (E. lentum) | Minimal Inhibitory Concentration (bioactivity data) (B. fibrisolvens; strain D1) | Minimal Inhibitory Concentration (bioactivity data) (S. ruminantium; strain GA31) | Minimal Inhibitory Concentration (bioactivity data) (R. flavefaciens; strain C94) | Minimal Inhibitory Concentration (bioactivity data) (R. flavefaciens; strain FD1)
1.6: Minimal Inhibitory Concentration (bioactivity data) (C. perfringens; strain A83-RKP)
50.0: Minimal Inhibitory Concentration (bioactivity data) (B. fibrisolvens; strain 49)
12.5: Minimal Inhibitory Concentration (bioactivity data) (E. ruminantium)

C=C(NC(=O)c1ccc2c(n1)-c1nc(oc1C)C(C)NC(=O)c1csc(n1)C(C)NC(=O)c1nc(oc1C)CNC(=O)C(C(C)C)NC(=O)c1csc-2n1)C(N)=O (centres unmarked) [Antibiotic 10381w]
100: Minimal Inhibitory Concentration (bioactivity data) (C. perfringens; strain RF1B04) | Minimal Inhibitory Concentration (bioactivity data) (R. flavefaciens; strain C94)
< 0.2: Minimal Inhibitory Concentration (bioactivity data) (P. ruminicola)
12.5: Minimal Inhibitory Concentration (bioactivity data) (C. perfringens; strain A83-3) | Minimal Inhibitory Concentration (bioactivity data) (S. ruminantium; strain GA192)
25.0: Minimal Inhibitory Concentration (bioactivity data) (E. lentum)
considerably less active: in vitro activity ranking of the individual components [1]
25: Minimal Inhibitory Concentration (bioactivity data) (E. ruminantium)
> 100: Minimal Inhibitory Concentration (bioactivity data) (C. perfringens; strain A82-1) | Minimal Inhibitory Concentration (bioactivity data) (C. perfringens; strain A83-RKP) | Minimal Inhibitory Concentration (bioactivity data) (C. perfringens; strain CCS2-09) | Minimal Inhibitory Concentration (bioactivity data) (C. perfringens; strain P1051C3) | Minimal Inhibitory Concentration (bioactivity data) (C. perfringens; strain P1083C1) | Minimal Inhibitory Concentration (bioactivity data) (C. perfringens; strain UC9452) | Minimal Inhibitory Concentration (bioactivity data) (S. faecalis; strain 71A01) | Minimal Inhibitory Concentration (bioactivity data) (S. faecalis; strain CCS1-03) | Minimal Inhibitory Concentration (bioactivity data) (S. faecalis; strain P1051C4) | Minimal Inhibitory Concentration (bioactivity data) (S. bovis) | Minimal Inhibitory Concentration (bioactivity data) (B. fragilis) | Minimal Inhibitory Concentration (bioactivity data) (B. thetaiotaomicron) | Minimal Inhibitory Concentration (bioactivity data) (B. fibrisolvens; strain 49) | Minimal Inhibitory Concentration (bioactivity data) (B. fibrisolvens; strain D1) | Minimal Inhibitory Concentration (bioactivity data) (M. elsdenii) | Minimal Inhibitory Concentration (bioactivity data) (L. multiparus) | Minimal Inhibitory Concentration (bioactivity data) (R. amylophilus) | Minimal Inhibitory Concentration (bioactivity data) (R. flavefaciens; strain FD1) | Minimal Inhibitory Concentration (bioactivity data) (F. necrophorum; strain FN4070) | Minimal Inhibitory Concentration (bioactivity data) (F. necrophorum; strain FN5052) | Minimal Inhibitory Concentration (bioactivity data) (S. hyodysenteriae; strain 16-4) | Minimal Inhibitory Concentration (bioactivity data) (S. hyodysenteriae; strain B204)
1.6: Minimal Inhibitory Concentration (bioactivity data) (S. ruminantium; strain GA31)

C=C(NC(=O)C(=C)NC(=O)C(=C)NC(=O)c1ccc2c(n1)-c1nc(oc1C)C(C)NC(=O)c1csc(n1)C(C)NC(=O)c1nc(oc1C)CNC(=O)C(C(C)C)NC(=O)c1csc-2n1)C(N)=O (centres unmarked) [Antibiotic 10381x]
considerably less active: in vitro activity ranking of the individual components [1]
3.1 µg/mL: M.I.C. (C. perfringens; strain RF1B04) | M.I.C. (B. fibrisolvens; strain D1) | M.I.C. (R. flavefaciens; strain C94) | M.I.C. (E. ruminantium; [2])
1.6 µg/mL: M.I.C. (C. perfringens; strain A83-RKP) | M.I.C. (C. perfringens; strain CCS2-09) | M.I.C. (C. perfringens; strain P1083C1) | M.I.C. (B. fibrisolvens; strain 49)
> 100: Minimal Inhibitory Concentration (bioactivity data) (C. perfringens; strain A82-1) | Minimal Inhibitory Concentration (bioactivity data) (C. perfringens; strain P1051C3) | Minimal Inhibitory Concentration (bioactivity data) (S. faecalis; strain 71A01) | Minimal Inhibitory Concentration (bioactivity data) (S. faecalis; strain CCS1-03) | Minimal Inhibitory Concentration (bioactivity data) (S. faecalis; strain P1051C4) | Minimal Inhibitory Concentration (bioactivity data) (S. bovis) | Minimal Inhibitory Concentration (bioactivity data) (B. fragilis) | Minimal Inhibitory Concentration (bioactivity data) (B. thetaiotaomicron) | Minimal Inhibitory Concentration (bioactivity data) (B. fibrisolvens; strain 49) | Minimal Inhibitory Concentration (bioactivity data) (M. elsdenii) | Minimal Inhibitory Concentration (bioactivity data) (L. multiparus) | Minimal Inhibitory Concentration (bioactivity data) (R. flavefaciens; strain C94) | Minimal Inhibitory Concentration (bioactivity data) (F. necrophorum; strain FN4070) | Minimal Inhibitory Concentration (bioactivity data) (F. necrophorum; strain FN5052) | Minimal Inhibitory Concentration (bioactivity data) (S. hyodysenteriae; strain 16-4) | Minimal Inhibitory Concentration (bioactivity data) (S. hyodysenteriae; strain B204)
50.0: Minimal Inhibitory Concentration (bioactivity data) (C. perfringens; strain A83-RKP) | Minimal Inhibitory Concentration (bioactivity data) (C. perfringens; strain RF1B04) | Minimal Inhibitory Concentration (bioactivity data) (C. perfringens; strain UC9452)
25.0: Minimal Inhibitory Concentration (bioactivity data) (C. perfringens; strain A83-3) | Minimal Inhibitory Concentration (bioactivity data) (R. amylophilus)
12.5: Minimal Inhibitory Concentration (bioactivity data) (P. ruminicola)
100.0 µg/mL: M.I.C. (S. faecalis; strain 71A01) | M.I.C. (B. fragilis; [2])
< 0.2: Minimal Inhibitory Concentration (bioactivity data) (E. lentum)
6.3 µg/mL: M.I.C. (C. perfringens; strain 71A02) | M.I.C. (C. perfringens; strain A83-3) | M.I.C. (C. perfringens; strain UC9452) | M.I.C. (L. multiparus; [2]) | M.I.C. (R. flavefaciens; strain FD1)
50.0 µg/mL: M.I.C. (C. perfringens; strain A82-1) | M.I.C. (C. perfringens; strain CCS1-11) | M.I.C. (S. faecalis; strain CCS1-03) | M.I.C. (S. faecalis; strain P1051C4) | M.I.C. (B. thetaiotaomicron; [2])
100: Minimal Inhibitory Concentration (bioactivity data) (C. perfringens; strain CCS2-09) | Minimal Inhibitory Concentration (bioactivity data) (C. perfringens; strain P1083C1) | Minimal Inhibitory Concentration (bioactivity data) (B. fibrisolvens; strain D1) | Minimal Inhibitory Concentration (bioactivity data) (R. flavefaciens; strain FD1) | Minimal Inhibitory Concentration (bioactivity data) (E. ruminantium)
6.3: Minimal Inhibitory Concentration (bioactivity data) (S. ruminantium; strain GA31) | Minimal Inhibitory Concentration (bioactivity data) (S. ruminantium; strain GA192)
0.2 µg/mL: M.I.C. (P. ruminicola; [2])
> 100.0 µg/mL: M.I.C. (C. perfringens; strain P1051C3) | M.I.C. (M. elsdenii; [2]) | M.I.C. (S. ruminantium; strain GA31) | M.I.C. (S. ruminantium; strain GA192) | M.I.C. (R. amylophilus; [2]) | M.I.C. (F. necrophorum; strain FN4070) | M.I.C. (F. necrophorum; strain FN5052)
25.0 µg/mL: M.I.C. (S. bovis; [2])
